Measured values reported in patent publication EP4631940A1, “COMPOUND TARGETING PAN-KRAS PROTEIN DEGRADATION AGENT AND USE THEREOF” (Betta Pharmaceuticals Co., Ltd., priority 2022, dated 2024).
Read-outs that look alike come from different tables or passages of the source.

Experiments:
[1] = Metabolic stability in liver microsomes (NADPH); conditions: for The in vitro intrinsic clearance in liver microsomes (CLint, in vitro, µL/min/mg protein) Mouse: 0.5 mg/mL liver microsomes, NADPH, 37°C
[2] = Metabolic stability in liver microsomes (NADPH); conditions: for The in vitro intrinsic clearance in liver microsomes (CLint, in vitro, µL/min/mg protein) Rat: 0.5 mg/mL liver microsomes, NADPH, 37°C
SW620 = experiment: Cell proliferation experiment (CellTiter-Glo); format: cell-based; conditions: read-out: IC50(nM) SW620
[3] = Metabolic stability in liver microsomes (NADPH); conditions: for The in vitro intrinsic clearance in liver microsomes (CLint, in vitro, µL/min/mg protein) Human: 0.5 mg/mL liver microsomes, NADPH, 37°C
KRAS G12D [4] = biological target: T1, KRAS G12D (Homo sapiens, UniProt P01116, G12D)
AGS = experiment: Cell proliferation experiment (CellTiter-Glo); format: cell-based; conditions: read-out: IC50(nM) AGS
[5] = Metabolic stability in liver microsomes (NADPH); conditions: for The in vitro intrinsic clearance in liver microsomes (CLint, in vitro, µL/min/mg protein) Dog: 0.5 mg/mL liver microsomes, NADPH, 37°C
[6] = PK study in ICR mice (whole blood); format: in vivo; conditions: Female ICR mice, IV 1 mg/kg
Experimental: Example 8 PK Study of Compound in ICR Mice (whole blood)
(§1) The compound was mixed with the vehicle (10% DMSO / 5% Solutol HS 15 / 85% saline), vortexed, and sonicated to prepare a clear solution at 0.2 mg/mL. Female ICR mice aged 6 to 7 weeks (non-fasted) were intravenously administered the compound. Whole blood was collected at specified time points. Drug concentration was analyzed by LC-MS/MS, and pharmacokinetic parameters were calculated using Phoenix WinNonlin software (Pharsight Corporation, USA). Table 11 Mouse PK Data for Intravenous Compound Monotherapy

HCT116 = experiment: Cell proliferation experiment (CellTiter-Glo); format: cell-based; conditions: Homo sapiens, HCT-116; HCT116, KRAS mutation type G13D; 96 h incubation
[7] = PK study in ICR mice (plasma); format: in vivo; conditions: Female ICR mice, IV 1 mg/kg
Experimental: Example 9 PK Study of Compound in ICR Mice (plasma)
as §1, with “Plasma” for “Whole blood”, “12” for “11”

PK59 = experiment: Cell proliferation experiment (CellTiter-Glo); format: cell-based; conditions: PK-59; PK59, KRAS mutation type G12D; 96 h incubation
in vitro [8] = conditions: mouse, microsomes
in vitro [9] = conditions: rat, microsomes
KRAS G12D [10] = biological target: T1, KRAS G12D; experiment: cell-based; conditions: AGS
H1975 = experiment: Cell proliferation experiment (CellTiter-Glo); format: cell-based; conditions: Homo sapiens, NCI-H1975; H1975, KRAS WT; 96 h incubation
PK-59 cells = experiment: Anti-tumor effects in a human pancreatic cancer xenograft model carrying KRAS^G12D mutation; format: in vivo, BALB/c Nude Crlj mice; conditions: PK-59 xenograft; for TGI After 4 Weeks of Administration (%): tail vein
in vitro [11] = conditions: human, microsomes
[12] = PK study in Beagle dogs (plasma); format: in vivo; conditions: IV 1 mg/kg
Experimental: Example 10 PK Study of Compound 135 in Beagle Dogs
as §1, with “Compound 135” for “The compound”, “0.5” for “0.2”, “Beagle dogs weighing approximately 10 kg (equal number of males and females, non-fasted)” for “Female ICR mice aged 6 to 7 weeks (non-fasted)”, “Plasma” for “Whole blood”, “13 Beagle Dog” for “11 Mouse”

H358 = experiment: Cell proliferation experiment (CellTiter-Glo); format: cell-based; conditions: Homo sapiens, NCI-H358; H358, KRAS mutation type G12C; 96 h incubation
in vitro [13] = conditions: dog, microsomes

| Compound | The in vitro intrinsic clearance in liver microsomes (CLint, in vitro, µL/min/mg protein) Mouse [1] | The in vitro intrinsic clearance in liver microsomes (CLint, in vitro, µL/min/mg protein) Rat [2] | IC50 (SW620) | The in vitro intrinsic clearance in liver microsomes (CLint, in vitro, µL/min/mg protein) Human [3] | DC50 (KRAS G12D [4]) | Dmax (%) (KRAS G12D [4]) | IC50 (AGS) | The in vitro intrinsic clearance in liver microsomes (CLint, in vitro, µL/min/mg protein) Dog [5] | IC50 (HCT116) | IC50 (PK59) | microsomal CLint (in vitro [8]) | microsomal CLint (in vitro [9]) | Dmax (KRAS G12D [10]) | IC50 (H1975) | IC50 (SW620; Homo sapiens, SW-620, 96 h) | IC50 (AGS; Homo sapiens, AGS, 96 h) | microsomal CLint (in vitro [11]) | microsomal CLint (in vitro [13]) | further results |
| --- | --- | --- | --- | --- | --- | --- | --- | --- | --- | --- | --- | --- | --- | --- | --- | --- | --- | --- | --- |
| CCc1c(F)ccc2cc(O)cc(-c3ncc4c(N5CCC[C@@](C)(O)C5)nc(OCC5(CN6CCC7(CC6)CC(c6cn([C@H](C(=O)N8C[C@H](O)C[C@H]8C(=O)N[C@@H](C)c8ccc(-c9scnc9C)cc8)C(C)C)nn6)C7)CC5)nc4c3F)c12 [Compound 73, (2S,4R)-1-((S)-2-(4-(7-((1-((7-(8-ethyl-7-fluoro-3-hydroxynaphthalen-1-yl)-8-fluoro-4-(((R)-3-hydroxy-3-methylpiperidin-1-yl)pyrido[4,3-d]pyrimidin-2-yl)oxy)methyl)cyclopropyl)methyl)-7-azaspiro[3.5]nonan-2-yl)-1H-1,2,3-triazol-1-yl)-3-methylbutanoyl)-4-hydroxy-N-((S)-1-(4-(4-methylthiazol-5-yl)phenyl)ethyl)pyrrolidine-2-carboxamide] | 7.1 µL/min/mg protein | 9.8 µL/min/mg protein | 81 nM | 13.8 µL/min/mg protein | 17 nM | 95% | 22 nM | 18.9 µL/min/mg protein | – | – | – | – | – | – | – | – | – | – | AUClast [6]: 2051 ng·h/mL; C0 [6]: 3008 ng/mL; t1/2 [6]: 5.07 h; Cl_obs ([6]; 1 mg/kg): 7.97 mL/min/kg; Vss_obs ([6]; 1 mg/kg): 1.91 L/kg |
| CCc1c(F)ccc2cc(O)cc(-c3ncc4c(N5CCC[C@@](C)(O)C5)nc(OCC5(CN6CCC(Oc7ccc(-c8cn([C@H](C(=O)N9C[C@H](O)C[C@H]9C(=O)N[C@@H](C)c9ccc(-c%10scnc%10C)cc9)C(C)C)nn8)cn7)CC6)CC5)nc4c3F)c12 [Compound 135] | – | – | – | – | 14 nM | – | – | – | 33 nM | 14.7 nM | 13.2 µL/min/mg | 1.5 µL/min/mg | 95% | > 10000 nM | 39 nM | 5.2 nM | 11.3 µL/min/mg | 26.9 µL/min/mg | Cl_obs [7]: 5.80 mL/min/kg; Vss_obs [7]: 1.61 L/kg; AUC(0-t) ([7]; mouse): 2750 ng·h/mL; C0 ([7]; mouse): 5840 ng/mL; half-life ([7]; mouse): 6.92 h; TGI After 4 Weeks of Administration (%) (PK-59 cells; 1 mg/kg, QW): 70%; TGI After 4 Weeks of Administration (%) (PK-59 cells; 3 mg/kg, QW): 92%; TGI After 4 Weeks of Administration (%) (PK-59 cells; 10 mg/kg, QW): 106%; TGI After 4 Weeks of Administration (%) (PK-59 cells; 20 mg/kg, Q2W): 101%; TGI at 20 mg/kg once every two weeks versus 10 mg/kg once weekly (PK-59 cells; 4 weeks of administration): comparable TGI; Cl_obs [12]: 5.74 mL/min/kg; Vss_obs [12]: 2.23 L/kg; AUC(0-t) ([12]; dog): 2780 ng·h/mL; C0 ([12]; dog): 11000 ng/mL; half-life ([12]; dog): 21.4 h; IC50 (H358): 7.3 nM |
| (2S,4R)-1-((S)-2-(5-(((3S,7aS)-7a-(((7-(8-ethyl-7-fluoro-3-hydroxynaphthalen-1-yl)-8-fluoro-4-( (R)-3-hydroxy-3-methylpiperidin-1-yl)pyrido[4,3-d]pyrimidin-2-yl)oxy)methyl)-6-methylenehex ahydro-1H-pyrrolidin-3-yl)methoxy)methyl)-1H-1,2,3-triazol-1-yl)-3-methylbutanoyl)-4-hydrox y-N-(((S)-1-(4-(4-methylthiazol-5-yl)phenyl)ethyl)pyrrolidine-2-carboxamide [Compound 120] | 48.5 µL/min/mg protein | 9.3 µL/min/mg protein | 102 nM | 128 µL/min/mg protein | 11 nM | 95% | 12 nM | 113 µL/min/mg protein | – | – | – | – | – | – | – | – | – | – | – |
| CCc1c(F)ccc2cc(O)cc(-c3ncc4c(N5CCC[C@@](C)(O)C5)nc(OCC5(CN6CCC7(CC6)CN(c6ccc(-c8cn([C@H](C(=O)N9C[C@H](O)C[C@H]9C(=O)N[C@@H](C)c9ccc(-c%10scnc%10C)cc9)C(C)C)nn8)cn6)C7)CC5)nc4c3F)c12 [Compound 118] | – | – | – | – | 11 nM | – | – | – | 37 nM | 12.2 nM | 11.4 µL/min/mg | 3.4 µL/min/mg | 95% | > 10000 nM | 26 nM | 13 nM | 21.3 µL/min/mg | 17.2 µL/min/mg | – |
| ((7-(8-ethyl-7-fluoro-3-hydroxynaphthalen-1-yl)-8-fluoro-4-(R)-3-hydroxy-3-methylpiperidin-1-yl)pyrido[4,3-d]pyrimidin-2-yl)oxy)methyl)-6-methylenehexahydro-1H-pyrrolizin-3-yl)methyl 2-(1-(S)-1-(2S,4R)-4-hydroxy-2-(S)-1-(4-(4-methylthiazol-5-yl)phenyl)ethylcarbamoyl)pyrrolidi n-1-yl)-3-methyl-1-oxobutan-2-yl)-1H-1,2,3-triazol-4-yl)-7-azaspiro[3.5]nonane-7-carboxylate [Compound 127] | 42.4 µL/min/mg protein | 15.6 µL/min/mg protein | 223 nM | 52.8 µL/min/mg protein | – | – | 47 nM | 31.5 µL/min/mg protein | – | – | – | – | – | – | – | – | – | – | – |
| C=C1CN2[C@H](COC(=O)N3CCC(Cc4cn([C@H](C(=O)N5C[C@H](O)C[C@H]5C(=O)N[C@@H](C)c5ccc(-c6scnc6C)cc5)C(C)C)nn4)CC3)CC[C@@]2(COc2nc(N3CCC[C@@](C)(O)C3)c3cnc(-c4cc(O)cc5ccc(F)c(CC)c45)c(F)c3n2)C1 [Compound 141, ((3S,7aS)-7a-(((7-(8-ethyl-7-fluoro-3-hydroxynaphthalen-1-yl)-8-fluoro-4-((R)-3-hydroxy-3-methylpiperidin-1-yl)pyrido[4,3-d]pyrimidin-2-yl)oxy)methyl)-6-methylenehexahydro-1H-pyrrolizin-3-yl)methyl 4-((1-((S)-1-((2S,4R)-4-hydroxy-2-(((S)-1-(4-(4-methylthiazol-5-yl)phenyl)ethyl)carbamoyl)pyrrolidin-1-yl)-3-methyl-1-oxobutan-2-yl)-1H-1,2,3-triazol-4-yl)methyl)piperidine-1-carboxylate] | – | – | – | – | – | – | – | – | – | – | – | – | – | – | 250 nM | 31 nM | – | – | microsomal CLint at 1 µM ([1]; mouse, liver microsomes): 12.1 µL/min/mg; microsomal CLint at 1 µM ([2]; rat, liver microsomes): 3.9 µL/min/mg; microsomal CLint at 1 µM ([3]; human, liver microsomes): 21.2 µL/min/mg; microsomal CLint at 1 µM ([5]; dog, liver microsomes): 12.9 µL/min/mg |
